Results reported in US8815923B2, “Therapeutic compounds” (Allergan, Inc., priority 2007, dated 2014).

Columns and labels:
Format in all cases: cell-based
alpha2B receptor = biological target: T1, alpha2B receptor (Homo sapiens, UniProt P18089); test: RSAT assay, Alpha 2B; conditions: for EC50: RSAT, transfected NIH-3T3 cells with Gq/i5, nd = not determinable at concentrations less than 10 micromolar; for Emax: read-out: Alpha 2B IA (intrinsic activity), in parentheses
T1 construct: expressed in transfected cells; host or cells: NIH-3T3
T1 sequence (P18089 1-450): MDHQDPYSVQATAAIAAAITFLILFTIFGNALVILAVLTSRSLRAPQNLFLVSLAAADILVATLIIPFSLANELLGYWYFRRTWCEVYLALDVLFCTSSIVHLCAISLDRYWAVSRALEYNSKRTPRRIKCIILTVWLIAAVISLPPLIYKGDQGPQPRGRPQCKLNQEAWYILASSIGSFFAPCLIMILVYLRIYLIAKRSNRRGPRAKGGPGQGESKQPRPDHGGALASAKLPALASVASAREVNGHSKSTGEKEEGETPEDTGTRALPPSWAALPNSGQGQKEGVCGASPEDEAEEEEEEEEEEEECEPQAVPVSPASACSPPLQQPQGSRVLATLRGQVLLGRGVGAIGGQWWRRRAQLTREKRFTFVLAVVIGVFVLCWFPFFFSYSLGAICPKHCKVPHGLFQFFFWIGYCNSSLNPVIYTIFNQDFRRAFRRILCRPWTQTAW
Description: (§1) Receptor Selection and Amplification Technology (RSAT) Assay
(§2) The RSAT assay measures a receptor-mediated loss of contact inhibition that results in selective proliferation of receptor-containing cells in a mixed population of confluent cells. The increase in cell number is assessed with an appropriate transfected marker gene such as β-galactosidase, the activity of which can be easily measured in a 96-well format. Receptors that activate the G protein, Gq, elicit this response. Alpha2 receptors, which normally couple to Gi, activate the RSAT response when coexpressed with a hybrid Gq protein that has a Gi receptor recognition domain, called Gq/i5.
(§3) NIH-3T3 cells are plated at a density of 2×10^6 cells in 15 cm dishes and maintained in Dulbecco's modified Eagle's medium supplemented with 10% calf serum. One day later, cells are cotransfected by calcium phosphate precipitation with mammalian expression plasmids encoding p-SV-β-galactosidase (5-10 μg), receptor (1-2 μg) and G protein (1-2 μg). 40 μg salmon sperm DNA may also be included in the transfection mixture. Fresh media is added on the following day and 1-2 days later, cells are harvested and frozen in 50 assay aliquots. Cells are thawed and 100 μl added to 100 μl aliquots of various concentrations of drugs in triplicate in 96-well dishes. Incubations continue 72-96 hr at 37° C. After washing with phosphate-buffered saline, β-galactosidase enzyme activity is determined by adding 200 μl of the chromogenic substrate (consisting of 3.5 mM o-nitrophenyl-β-D-galactopyranoside and 0.5% nonidet P-40 in phosphate buffered saline), incubating overnight at 30° C. and measuring optical density at 420 nm. The absorbance is a measure of enzyme activity, which depends on cell number and reflects a receptor-mediated cell proliferation. The efficacy or intrinsic activity is calculated as a ratio of the maximal effect of the drug to the maximal effect of a standard full agonist for each receptor subtype. Brimonidine, also called UK14304, the chemical structure of which is shown below, is used as the standard agonist for the alpha2A, alpha2B and alpha2C receptors. The EC50 is the concentration at which the drug effect is half of its maximal effect.
(§4) EC50 values are nanomolar. ND stands for “not determinable” at concentrations less than 10 micromolar. IA stands for “intrinsic activity.”

alpha2C receptor = biological target: T2, alpha2C receptor (Homo sapiens, UniProt P18825); test: RSAT assay, Alpha 2C; conditions: for Emax: read-out: Alpha 2C IA (intrinsic activity), in parentheses; for EC50: RSAT, transfected NIH-3T3 cells with Gq/i5, nd = not determinable at concentrations less than 10 micromolar
T2 construct: expressed in transfected cells; host or cells: NIH-3T3
T2 sequence (P18825 1-462): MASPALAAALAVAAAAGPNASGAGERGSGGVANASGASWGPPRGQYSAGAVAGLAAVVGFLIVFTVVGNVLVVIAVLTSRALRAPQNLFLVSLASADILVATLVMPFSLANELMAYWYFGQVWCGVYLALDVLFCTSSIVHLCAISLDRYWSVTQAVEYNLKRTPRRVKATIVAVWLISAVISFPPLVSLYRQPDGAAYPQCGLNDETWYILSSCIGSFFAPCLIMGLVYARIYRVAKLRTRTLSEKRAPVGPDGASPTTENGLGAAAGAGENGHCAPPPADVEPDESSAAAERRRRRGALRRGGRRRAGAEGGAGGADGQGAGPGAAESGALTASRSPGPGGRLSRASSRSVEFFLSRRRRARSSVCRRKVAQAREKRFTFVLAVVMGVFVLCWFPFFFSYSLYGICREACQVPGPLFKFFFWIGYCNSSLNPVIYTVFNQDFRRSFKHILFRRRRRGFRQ
Description: as §1, §2, §3, §4

alpha2A receptor = biological target: T3, alpha2A receptor (Homo sapiens, UniProt P08913); test: RSAT assay, Alpha 2A; conditions: for Emax: read-out: Alpha 2A IA (intrinsic activity), in parentheses
T3 construct: expressed in transfected cells; host or cells: NIH-3T3
T3 sequence (P08913 1-465): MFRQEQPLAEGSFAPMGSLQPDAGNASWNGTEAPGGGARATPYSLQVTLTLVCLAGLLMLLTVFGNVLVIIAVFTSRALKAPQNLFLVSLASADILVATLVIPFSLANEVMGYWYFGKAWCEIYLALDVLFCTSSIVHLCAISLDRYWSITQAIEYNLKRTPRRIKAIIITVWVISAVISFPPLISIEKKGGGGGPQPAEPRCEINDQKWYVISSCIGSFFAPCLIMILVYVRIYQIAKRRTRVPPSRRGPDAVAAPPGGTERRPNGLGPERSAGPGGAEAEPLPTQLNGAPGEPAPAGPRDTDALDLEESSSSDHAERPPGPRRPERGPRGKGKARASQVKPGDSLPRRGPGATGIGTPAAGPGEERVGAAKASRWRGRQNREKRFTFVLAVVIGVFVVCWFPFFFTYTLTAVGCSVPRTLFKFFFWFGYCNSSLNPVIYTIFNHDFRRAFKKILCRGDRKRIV
Description: as §1, §2, §3, §4

SMILES | EC50 (alpha2B receptor) [nM] | Emax (alpha2B receptor) [%] | Emax (alpha2C receptor) [%] | EC50 (alpha2A receptor; RSAT, transfected NIH-3T3 cells with Gq/i5, nd = not determinable at concentrations less than 10 micromolar) [nM] | Emax (alpha2A receptor) [%] | EC50 (alpha2C receptor) [nM]
Cc1cc(C)c2c(c1)C(NC1=NCCN1)CCC2 (stereo not drawn) [compound 904, (4,5-Dihydro-1H-imidazol-2-yl)-(5,7-dimethyl-1,2,3,4-tetrahydro-naphthalen-1-yl)-amine] | 68 | 80 | 4 | 1620 | 35 | –
c1ccc2c(c1)CCCC2NC1=NCCN1 (stereo not drawn) [compound 639, (4,5-Dihydro-1H-imidazol-2-yl)-(1,2,3,4-tetrahydro-naphthalen-1-yl)amine] | 37 | 84 | 50 | – | 25 | 179
c1ccc2c(c1)CCC[C@@H]2NC1=NCCN1 [compound 323] | 49 | 102 | 42 | – | 12 | 308
